# Values joined by “and” are separate entries in the source; they are usually repeats but may differ in a detail not shown here. Identical values can stand only once.
# Columns and labels:
# [1] = test system: phosphorylation of ALK, AKT, ERK, STAT3 and STAT5 in NCI-H3122 tumor tissue; assay: Phosphorylation of downstream signal molecules in tumor tissue of NCI-H3122 xenograft; format: in vivo, BALB/c nude mice; conditions: 8 h after administration
# Procedure: In general, the cells were exposed to the drug and were harvested for western blot analysis. SDS-PAGE was used to separate the proteins of interest, which were then transferred to a nitrocellulose (NC) filtration membrane and soaked in a blocking solution [5% non-fat dry milk in tris-buffered saline with Tween 20 (TBST)] for 1 h at room temperature. Thereafter, the membrane was probed overnight with primary antibodies at 4℃ and washed three times with TBST. The corresponding secondary antibody diluent was added, incubated at room temperature for 1 h, and washed 3 times with TBST. After adding the enhanced chemiluminescence developer to the NC filtration membrane, it is developed in the imaging system (ChemiDoc™ XRS^+, BIO-RAD). See Supplementary Table 2 for details of the antibodies used.
# In order to check how iruplinalkib exerts its anti-tumor effects in vivo, tumor tissue samples were collected at 1 and 8 h after the last dose, and the phosphorylation level of downstream signaling pathways molecules were detected.
# ABL = ABL (Homo sapiens, UniProt P00519); assay: Z'-LYTE kinase selectivity; format: biochemical
# P38 alpha = P38 alpha (Homo sapiens, UniProt Q16539); assay: Z'-LYTE kinase selectivity; format: biochemical
# [2] = test system: LU-01-0015 (HIP-ALK) patient derived lung-tumor xenografts; assay: LU-01-0015 patient-derived xenograft model (tumor volume, body weight); format: in vivo, BALB/c nude mice; conditions: for Tumor volume Mean: group mean; for Tumor volume: individual mouse, in mm³
# Procedure: Female BALB/c nude mice (4–6 weeks old) were provided by Shanghai Sipple-Bikai Laboratory Animal Co., Ltd. and Beijing Vital River Laboratory Animal Technology Co., Ltd. The mice were housed in a specific pathogen-free environment under a 12 h light/dark cycle, and had free access to sterile animal feed and water.
# PDX and CDX models were used for in vivo studies. Patient-derived tumors tissues were divided into about 30 mm^3 and transplanted into the right dorsal subcutis. Treatment began when the tumor size reached to 200 mm^3. The mice were randomly assignied into the corresponding dosing groups (9 mice in each group). Drugs were deliverd via daily oral for 4 weeks. Tumor size was measured periodically using a digital caliper (Cal Pro, Sylvac, Switzerland), and tumor volume was calculated as 0.5 × length × width^2. For more detailed information, please refer to Supplementary materials. All procedures and protocols of xenograft models were approved by the Institutional Animal Care and Use Committee of WuXi AppTec.
# Patient-derived tumor tissue was segmented into small pieces of approximately 20–30 mm^3 and transplanted subcutaneously into the right back of mice. When the tumor volume reached 150-200 mm^3, the mice were randomly divided into corresponding groups (9 mice in each group, female). Administered by gavage once daily for 4 weeks.
# MINK = MINK (Homo sapiens, UniProt Q8N4C8); assay: Z'-LYTE kinase selectivity; format: biochemical
# CDK2 = CDK2 (Homo sapiens, UniProt P24941); assay: Z'-LYTE kinase selectivity; format: biochemical
# MAPKAPK2 = MAPKAPK2 (Homo sapiens, UniProt P49137); assay: Z'-LYTE kinase selectivity; format: biochemical
# CK1 alpha = CK1 alpha (Homo sapiens, UniProt P48729); assay: Z'-LYTE kinase selectivity; format: biochemical
# PDK1 = PDK1 (Homo sapiens, UniProt O15530); assay: Z'-LYTE kinase selectivity; format: biochemical; conditions: read-out: IC50 PDK1
# [3] = 5 mg/kg PO QD×4 W, day 0 after administration
# [4] = 5 mg/kg PO QD×4 W, day 7 after administration
# [5] = 5 mg/kg PO QD×4 W, day 10 after administration
# [6] = 5 mg/kg PO QD×4 W, day 14 after administration
# [7] = 5 mg/kg PO QD×4 W, day 17 after administration
# [8] = 5 mg/kg PO QD×4 W, day 21 after administration
# [9] = 5 mg/kg PO QD×4 W, day 24 after administration
# [10] = 5 mg/kg PO QD×4 W, day 27 after administration
# [11] = 10 mg/kg PO QD×4 W, day 0 after administration
# [12] = 10 mg/kg PO QD×4 W, day 3 after administration
# [13] = 10 mg/kg PO QD×4 W, day 7 after administration
# [14] = 10 mg/kg PO QD×4 W, day 10 after administration
# [15] = 10 mg/kg PO QD×4 W, day 14 after administration
# [16] = 10 mg/kg PO QD×4 W, day 17 after administration
# [17] = 10 mg/kg PO QD×4 W, day 21 after administration
# [18] = 10 mg/kg PO QD×4 W, day 24 after administration
# [19] = 10 mg/kg PO QD×4 W, day 27 after administration
# Chain of MINK (Q8N4C8 whole entry): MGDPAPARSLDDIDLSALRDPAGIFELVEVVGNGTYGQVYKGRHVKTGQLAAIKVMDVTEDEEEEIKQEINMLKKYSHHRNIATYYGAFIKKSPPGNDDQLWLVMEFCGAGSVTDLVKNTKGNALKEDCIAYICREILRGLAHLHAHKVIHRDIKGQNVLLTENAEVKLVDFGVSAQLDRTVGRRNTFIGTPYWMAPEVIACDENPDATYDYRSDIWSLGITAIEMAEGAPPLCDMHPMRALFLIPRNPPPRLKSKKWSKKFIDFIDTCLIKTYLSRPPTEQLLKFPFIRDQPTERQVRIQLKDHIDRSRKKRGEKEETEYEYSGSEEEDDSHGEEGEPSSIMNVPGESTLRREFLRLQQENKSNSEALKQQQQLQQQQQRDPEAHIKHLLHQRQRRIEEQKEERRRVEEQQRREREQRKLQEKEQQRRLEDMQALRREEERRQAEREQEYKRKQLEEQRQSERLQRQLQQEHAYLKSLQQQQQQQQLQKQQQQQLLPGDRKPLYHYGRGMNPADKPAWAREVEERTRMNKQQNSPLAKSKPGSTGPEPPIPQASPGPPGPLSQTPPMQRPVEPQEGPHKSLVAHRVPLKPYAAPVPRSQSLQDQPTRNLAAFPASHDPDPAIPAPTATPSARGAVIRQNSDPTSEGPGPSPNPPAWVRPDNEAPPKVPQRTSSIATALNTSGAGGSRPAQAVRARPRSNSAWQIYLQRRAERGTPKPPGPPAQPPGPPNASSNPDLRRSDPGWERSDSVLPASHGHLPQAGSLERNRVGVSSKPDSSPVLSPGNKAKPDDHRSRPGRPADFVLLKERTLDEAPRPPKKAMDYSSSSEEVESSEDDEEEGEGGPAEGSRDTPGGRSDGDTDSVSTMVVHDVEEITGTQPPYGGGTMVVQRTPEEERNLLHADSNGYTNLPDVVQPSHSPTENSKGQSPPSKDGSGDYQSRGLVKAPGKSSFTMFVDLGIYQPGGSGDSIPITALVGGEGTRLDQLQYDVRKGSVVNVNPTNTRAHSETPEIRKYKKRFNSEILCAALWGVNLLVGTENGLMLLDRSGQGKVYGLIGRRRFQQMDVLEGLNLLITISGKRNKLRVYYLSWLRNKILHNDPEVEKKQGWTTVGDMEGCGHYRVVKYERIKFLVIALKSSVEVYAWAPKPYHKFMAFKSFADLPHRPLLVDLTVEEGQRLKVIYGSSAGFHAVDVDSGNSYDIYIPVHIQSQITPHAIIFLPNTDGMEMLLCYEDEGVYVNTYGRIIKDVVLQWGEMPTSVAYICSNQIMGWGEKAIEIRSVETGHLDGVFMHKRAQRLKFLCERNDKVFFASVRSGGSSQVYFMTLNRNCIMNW
# Chain of PDK1 (O15530 whole entry): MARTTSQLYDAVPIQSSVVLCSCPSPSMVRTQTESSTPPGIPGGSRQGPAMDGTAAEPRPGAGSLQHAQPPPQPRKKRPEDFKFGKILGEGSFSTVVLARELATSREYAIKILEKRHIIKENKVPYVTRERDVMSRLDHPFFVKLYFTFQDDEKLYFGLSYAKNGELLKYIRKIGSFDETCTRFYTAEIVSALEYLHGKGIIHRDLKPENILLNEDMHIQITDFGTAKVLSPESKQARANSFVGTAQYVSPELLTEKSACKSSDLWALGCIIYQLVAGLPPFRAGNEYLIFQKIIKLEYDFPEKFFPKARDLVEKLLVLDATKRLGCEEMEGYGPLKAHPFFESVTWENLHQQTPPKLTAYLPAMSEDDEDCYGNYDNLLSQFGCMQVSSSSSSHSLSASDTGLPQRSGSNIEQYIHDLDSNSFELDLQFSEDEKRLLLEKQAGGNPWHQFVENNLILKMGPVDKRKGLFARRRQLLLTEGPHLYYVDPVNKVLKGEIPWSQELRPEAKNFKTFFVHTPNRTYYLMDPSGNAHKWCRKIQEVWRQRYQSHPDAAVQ
# Chain of MAPKAPK2 (P49137 whole entry): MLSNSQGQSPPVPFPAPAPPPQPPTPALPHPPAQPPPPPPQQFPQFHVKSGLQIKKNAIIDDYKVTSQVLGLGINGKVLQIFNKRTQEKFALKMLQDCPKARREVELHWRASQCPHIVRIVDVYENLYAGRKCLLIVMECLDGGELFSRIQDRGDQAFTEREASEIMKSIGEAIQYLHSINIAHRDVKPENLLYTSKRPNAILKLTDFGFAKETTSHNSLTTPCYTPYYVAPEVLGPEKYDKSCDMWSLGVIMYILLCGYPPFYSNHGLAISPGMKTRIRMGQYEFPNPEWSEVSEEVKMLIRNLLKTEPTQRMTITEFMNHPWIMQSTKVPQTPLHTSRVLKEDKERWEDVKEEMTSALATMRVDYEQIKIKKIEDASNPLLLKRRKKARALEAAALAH
# Chain of P38 alpha (Q16539 whole entry): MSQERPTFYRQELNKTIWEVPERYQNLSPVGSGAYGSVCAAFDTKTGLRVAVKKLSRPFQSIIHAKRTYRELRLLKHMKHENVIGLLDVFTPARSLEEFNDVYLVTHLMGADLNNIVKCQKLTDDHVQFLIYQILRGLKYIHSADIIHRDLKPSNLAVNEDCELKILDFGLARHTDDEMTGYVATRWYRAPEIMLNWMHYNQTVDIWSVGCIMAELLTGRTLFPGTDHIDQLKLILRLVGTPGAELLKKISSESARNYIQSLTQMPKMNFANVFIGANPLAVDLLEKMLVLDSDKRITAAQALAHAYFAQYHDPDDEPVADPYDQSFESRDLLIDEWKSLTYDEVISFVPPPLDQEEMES
# Chain of ABL (P00519 whole entry): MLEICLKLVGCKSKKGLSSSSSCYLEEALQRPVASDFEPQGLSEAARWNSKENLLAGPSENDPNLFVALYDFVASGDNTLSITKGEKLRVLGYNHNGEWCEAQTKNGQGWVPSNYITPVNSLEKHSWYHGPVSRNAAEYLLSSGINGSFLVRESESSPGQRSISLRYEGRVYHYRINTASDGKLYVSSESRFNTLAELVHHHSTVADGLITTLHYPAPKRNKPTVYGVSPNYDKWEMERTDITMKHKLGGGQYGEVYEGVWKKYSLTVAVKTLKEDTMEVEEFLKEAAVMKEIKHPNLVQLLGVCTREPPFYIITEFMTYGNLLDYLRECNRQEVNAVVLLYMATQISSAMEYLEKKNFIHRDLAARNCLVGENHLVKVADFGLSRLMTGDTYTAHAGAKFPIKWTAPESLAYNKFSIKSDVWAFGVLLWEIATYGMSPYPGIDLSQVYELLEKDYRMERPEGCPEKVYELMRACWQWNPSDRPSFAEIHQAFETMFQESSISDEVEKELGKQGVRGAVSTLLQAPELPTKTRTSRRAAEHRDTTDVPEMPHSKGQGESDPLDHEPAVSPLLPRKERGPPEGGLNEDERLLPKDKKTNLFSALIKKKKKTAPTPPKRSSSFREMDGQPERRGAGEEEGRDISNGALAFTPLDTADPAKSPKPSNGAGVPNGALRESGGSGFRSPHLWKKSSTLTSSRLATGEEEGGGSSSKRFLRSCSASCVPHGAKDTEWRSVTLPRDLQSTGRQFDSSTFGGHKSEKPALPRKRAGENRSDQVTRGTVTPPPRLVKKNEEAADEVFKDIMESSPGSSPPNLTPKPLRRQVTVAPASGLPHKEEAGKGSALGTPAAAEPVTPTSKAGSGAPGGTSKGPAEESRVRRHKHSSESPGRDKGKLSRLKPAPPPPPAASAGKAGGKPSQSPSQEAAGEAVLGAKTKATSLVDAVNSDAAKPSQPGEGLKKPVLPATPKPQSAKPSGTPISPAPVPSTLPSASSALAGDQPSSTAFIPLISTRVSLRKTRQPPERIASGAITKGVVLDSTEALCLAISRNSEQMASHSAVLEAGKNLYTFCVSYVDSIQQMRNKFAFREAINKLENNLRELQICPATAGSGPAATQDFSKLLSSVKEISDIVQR
# Chain of CK1 alpha (P48729 whole entry): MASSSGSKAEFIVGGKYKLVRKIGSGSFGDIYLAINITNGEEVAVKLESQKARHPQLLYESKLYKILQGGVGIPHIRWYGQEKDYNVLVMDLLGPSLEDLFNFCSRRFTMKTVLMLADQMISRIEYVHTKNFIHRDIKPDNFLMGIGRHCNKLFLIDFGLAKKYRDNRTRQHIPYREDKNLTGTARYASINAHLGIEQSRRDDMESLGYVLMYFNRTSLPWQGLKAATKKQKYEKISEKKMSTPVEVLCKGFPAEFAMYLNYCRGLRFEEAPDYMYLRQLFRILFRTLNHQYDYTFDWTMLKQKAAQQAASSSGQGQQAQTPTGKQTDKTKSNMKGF
structure (smiles),measurement,setting,value
"COc1cc(N2CCC(N3CCN(C)CC3)CC2)ccc1Nc1ncc(Cl)c(Nc2ccccc2P(C)(C)=O)n1 [Brigatinib, reference compound]",levels of phosphorylation of STAT3 and STAT5 in tumor tissue,[1],decreased
same,IC50,ABL,0.596 ± 0.052 µM
same,IC50,P38 alpha,> 10 µM
same,Tumor volume Mean,[2]; [3],153 mm³
same,Tumor volume,[2]; [3],189 and 117 and 124
same,Tumor volume,"[2]; 5 mg/kg PO QD×4 W, day 3 after administration",172 and 123 and 114
same,Tumor volume Mean,[2]; [4],146 mm³
same,Tumor volume,[2]; [4],149 and 98
same,Tumor volume Mean,[2]; [5],122 mm³
same,Tumor volume,[2]; [5],128 and 67
same,Tumor volume Mean,[2]; [6],123 mm³
same,Tumor volume,[2]; [6],154 and 64
same,Tumor volume Mean,[2]; [7],146 mm³
same,Tumor volume,[2]; [7],177 and 96
same,Tumor volume Mean,[2]; [8],162 mm³
same,Tumor volume,[2]; [8],138 and 255
same,Tumor volume Mean,[2]; [9],148 mm³
same,Tumor volume,[2]; [9],122 and 117
same,Tumor volume Mean,[2]; [10],157 mm³
same,Tumor volume,[2]; [10],113 and 101 and 56
same,Tumor volume Mean,[2]; [11],149 mm³
same,Tumor volume,[2]; [11],229 and 201 and 134 and 173 and 152 and 164 and 80 and 99 and 111
same,Tumor volume Mean,[2]; [12],141 mm³
same,Tumor volume,[2]; [12],206 and 208 and 136 and 143 and 125 and 137 and 82 and 123 and 106
same,Tumor volume Mean,[2]; [13],123 mm³
same,Tumor volume,[2]; [13],195 and 180 and 121 and 110 and 74 and 78 and 152 and 89
same,Tumor volume Mean,[2]; [14],114 mm³
same,Tumor volume,[2]; [14],236 and 171 and 101 and 97 and 63 and 85 and 89 and 106 and 80
same,Tumor volume Mean,[2]; [15],108 mm³
same,Tumor volume,[2]; [15],204 and 172 and 98 and 118 and 60 and 84 and 74 and 89 and 71
same,Tumor volume Mean,[2]; [16],133 mm³
same,Tumor volume,[2]; [16],239 and 176 and 118 and 196 and 66 and 106 and 97 and 89
same,Tumor volume Mean,[2]; [17],133 mm³
same,Tumor volume,[2]; [17],247 and 182 and 156 and 187 and 61 and 96 and 111 and 68 and 85
same,Tumor volume Mean,[2]; [18],136 mm³
same,Tumor volume,[2]; [18],262 and 186 and 98 and 210 and 62 and 101 and 137 and 102 and 70
same,Tumor volume Mean,[2]; [19],152 mm³
same,Tumor volume,[2]; [19],332 and 197 and 131 and 249 and 47 and 95 and 163 and 85 and 70
same,tumor growth inhibition,"[2]; LU-01-0015 and NCI-H3122 xenograft models, all P < 0.05",able to inhibit tumor growth
same,effect on body weight,"[2]; nude mouse xenograft models (LU-01-0015, NCI-H3122), all P ≥ 0.05",no effect
same,IC50,MINK,4.04 ± 2.16 µM
same,IC50,CDK2,1.51 ± 0.554 µM
same,IC50,MAPKAPK2,> 10 µM
same,IC50,CK1 alpha,> 10 µM
same,IC50,PDK1,> 10 µM
